From paper PMC10239507, “Development of allosteric and selective CDK2 inhibitors for contraception with negative cooperativity to cyclin binding” (Nature Communications, 2023)

Legend:
Test in all cases: biochemical
[1] = molecular target: T1, 371 kinases (kinase named in each endpoint) (Homo sapiens, UniProt Q13177); conditions: PAK2
T1 construct: purchased Reaction Biology

[2] = molecular target: T2, 371 kinases (kinase named in each endpoint) (Homo sapiens, UniProt O60285); conditions: ARK5/NUAK1
T2 construct: purchased Reaction Biology

[3] = molecular target: T3, 371 kinases (kinase named in each endpoint) (Homo sapiens, UniProt Q16288); conditions: TRKC
T3 construct: purchased Reaction Biology

[4] = molecular target: T4, 371 kinases (kinase named in each endpoint) (Homo sapiens, UniProt Q96GX5); conditions: MASTL
T4 construct: purchased Reaction Biology

[5] = molecular target: T5, 371 kinases (kinase named in each endpoint) (Homo sapiens, UniProt O14757); conditions: CHK1
T5 construct: purchased Reaction Biology

[6] = molecular target: T6, 371 kinases (kinase named in each endpoint) (Homo sapiens, UniProt Q9Y6E0); conditions: MST3/STK24
T6 construct: purchased Reaction Biology

[7] = molecular target: T7, 371 kinases (kinase named in each endpoint) (Homo sapiens, UniProt P42681); conditions: TXK
T7 construct: purchased Reaction Biology

[8] = molecular target: T8, 371 kinases (kinase named in each endpoint) (Homo sapiens, UniProt Q9Y2U5); conditions: MEKK2
T8 construct: purchased Reaction Biology

[9] = molecular target: T9, 371 kinases (kinase named in each endpoint) (Homo sapiens, UniProt Q09013); conditions: DMPK
T9 construct: purchased Reaction Biology

[10] = molecular target: T10, 371 kinases (kinase named in each endpoint) (Homo sapiens, UniProt Q9UQB9); conditions: AURORA C
T10 construct: purchased Reaction Biology

[11] = molecular target: T11, 371 kinases (kinase named in each endpoint) (Homo sapiens, UniProt P53778); conditions: P38G
T11 construct: purchased Reaction Biology

[12] = molecular target: T12, 371 kinases (kinase named in each endpoint) (Homo sapiens, UniProt P35968); conditions: KDR/VEGFR2
T12 construct: purchased Reaction Biology

[13] = molecular target: T13, 371 kinases (kinase named in each endpoint) (Homo sapiens, UniProt P54756); conditions: EPHA5
T13 construct: purchased Reaction Biology

[14] = molecular target: T14, 371 kinases (kinase named in each endpoint) (Homo sapiens, UniProt P07332); conditions: FES/FPS
T14 construct: purchased Reaction Biology

[15] = molecular target: T15, 371 kinases (kinase named in each endpoint) (Homo sapiens, UniProt Q16513); conditions: PKN2/PRK2
T15 construct: purchased Reaction Biology

[16] = molecular target: T16, 371 kinases (kinase named in each endpoint) (Homo sapiens, UniProt P57078); conditions: RIPK4
T16 construct: purchased Reaction Biology

[17] = molecular target: T17, 371 kinases (kinase named in each endpoint) (Homo sapiens, UniProt P23443); conditions: P70S6K/RPS6KB1
T17 construct: purchased Reaction Biology

[18] = molecular target: T18, 371 kinases (kinase named in each endpoint) (Homo sapiens, UniProt Q8N5S9); conditions: CAMKK1
T18 construct: purchased Reaction Biology

[19] = molecular target: T19, 371 kinases (kinase named in each endpoint) (Homo sapiens, UniProt O94804); conditions: LOK/STK10
T19 construct: purchased Reaction Biology

[20] = molecular target: T20, 371 kinases (kinase named in each endpoint) (Homo sapiens, UniProt Q9H4B4); conditions: PLK3
T20 construct: purchased Reaction Biology

[21] = molecular target: T21, 371 kinases (kinase named in each endpoint) (Homo sapiens, UniProt Q13043); conditions: MST1/STK4
T21 construct: purchased Reaction Biology

[22] = molecular target: T22, 371 kinases (kinase named in each endpoint) (Homo sapiens, UniProt Q9UHD2); conditions: TBK1
T22 construct: purchased Reaction Biology

[23] = molecular target: T23, 371 kinases (kinase named in each endpoint) (Homo sapiens, UniProt P49674); conditions: CK1EPSILON
T23 construct: purchased Reaction Biology

[24] = molecular target: T24, 371 kinases (kinase named in each endpoint) (Homo sapiens, UniProt P51955); conditions: NEK2
T24 construct: purchased Reaction Biology

[25] = molecular target: T25, 371 kinases (kinase named in each endpoint) (Homo sapiens, UniProt Q08881); conditions: ITK
T25 construct: purchased Reaction Biology

[26] = molecular target: T26, 371 kinases (kinase named in each endpoint) (Homo sapiens, UniProt P20794); conditions: MAK
T26 construct: purchased Reaction Biology

[27] = molecular target: T27, 371 kinases (kinase named in each endpoint) (Homo sapiens, UniProt P68400); conditions: CK2A
T27 construct: purchased Reaction Biology

[28] = molecular target: T28, 371 kinases (kinase named in each endpoint) (Homo sapiens, UniProt Q9Y6M4); conditions: CK1G3
T28 construct: purchased Reaction Biology

[29] = molecular target: T29, 371 kinases (kinase named in each endpoint) (Homo sapiens, UniProt P78362); conditions: SRPK2
T29 construct: purchased Reaction Biology

[30] = molecular target: T30, 371 kinases (kinase named in each endpoint) (Homo sapiens, UniProt Q92918); conditions: HPK1/MAP4K1
T30 construct: purchased Reaction Biology

[31] = molecular target: T31, 371 kinases (kinase named in each endpoint) (Homo sapiens, UniProt Q13976); conditions: PKG1A
T31 construct: purchased Reaction Biology

[32] = molecular target: T32, 371 kinases (kinase named in each endpoint) (Homo sapiens, UniProt P52333); conditions: JAK3
T32 construct: purchased Reaction Biology

[33] = molecular target: T33, 371 kinases (kinase named in each endpoint) (Homo sapiens, UniProt P21709); conditions: EPHA1
T33 construct: purchased Reaction Biology

[34] = molecular target: T34, 371 kinases (kinase named in each endpoint) (Homo sapiens, UniProt O60307); conditions: MAST3
T34 construct: purchased Reaction Biology

[35] = molecular target: T35, 371 kinases (kinase named in each endpoint) (Homo sapiens, UniProt O00238); conditions: ALK6/BMPR1B
T35 construct: purchased Reaction Biology

[36] = molecular target: T36, 371 kinases (kinase named in each endpoint) (Homo sapiens, UniProt Q96PN8); conditions: TSSK3/STK22C
T36 construct: purchased Reaction Biology

[37] = molecular target: T37, 371 kinases (kinase named in each endpoint) (Homo sapiens, UniProt Q9UEE5); conditions: DRAK1/STK17A
T37 construct: purchased Reaction Biology

T6 sequence (Q9Y6E0 whole entry): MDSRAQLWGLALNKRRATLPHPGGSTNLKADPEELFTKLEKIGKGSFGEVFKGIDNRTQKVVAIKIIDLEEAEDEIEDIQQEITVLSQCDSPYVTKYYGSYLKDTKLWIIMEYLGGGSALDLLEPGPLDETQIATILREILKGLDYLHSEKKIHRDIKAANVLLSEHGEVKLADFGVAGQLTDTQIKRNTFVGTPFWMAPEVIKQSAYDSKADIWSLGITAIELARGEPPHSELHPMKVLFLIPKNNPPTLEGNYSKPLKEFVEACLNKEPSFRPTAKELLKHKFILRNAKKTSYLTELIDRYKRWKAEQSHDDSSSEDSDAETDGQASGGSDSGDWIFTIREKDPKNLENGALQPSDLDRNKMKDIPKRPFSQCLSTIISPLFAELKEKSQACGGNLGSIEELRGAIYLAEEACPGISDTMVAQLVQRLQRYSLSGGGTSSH
T14 sequence (P07332 whole entry): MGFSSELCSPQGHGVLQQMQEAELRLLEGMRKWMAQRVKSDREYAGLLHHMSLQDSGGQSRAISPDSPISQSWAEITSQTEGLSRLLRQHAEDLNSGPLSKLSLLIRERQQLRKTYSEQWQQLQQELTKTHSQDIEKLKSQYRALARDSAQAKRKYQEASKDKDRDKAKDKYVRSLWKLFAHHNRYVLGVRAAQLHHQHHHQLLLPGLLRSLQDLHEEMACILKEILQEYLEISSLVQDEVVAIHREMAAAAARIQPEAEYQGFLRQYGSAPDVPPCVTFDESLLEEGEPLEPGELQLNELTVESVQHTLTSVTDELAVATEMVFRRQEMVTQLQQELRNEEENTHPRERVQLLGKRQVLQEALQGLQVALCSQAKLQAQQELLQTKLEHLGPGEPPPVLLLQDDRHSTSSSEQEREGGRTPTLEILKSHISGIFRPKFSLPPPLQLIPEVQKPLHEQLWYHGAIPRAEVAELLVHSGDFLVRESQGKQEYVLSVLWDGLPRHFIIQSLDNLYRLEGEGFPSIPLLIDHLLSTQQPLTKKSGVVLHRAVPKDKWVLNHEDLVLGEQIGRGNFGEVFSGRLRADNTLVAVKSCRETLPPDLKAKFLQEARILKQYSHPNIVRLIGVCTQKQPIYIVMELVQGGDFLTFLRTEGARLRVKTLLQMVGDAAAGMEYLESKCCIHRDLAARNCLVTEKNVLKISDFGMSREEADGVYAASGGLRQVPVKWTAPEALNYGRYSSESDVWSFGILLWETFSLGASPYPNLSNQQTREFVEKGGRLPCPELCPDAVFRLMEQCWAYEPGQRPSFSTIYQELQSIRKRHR
T20 sequence (Q9H4B4 whole entry): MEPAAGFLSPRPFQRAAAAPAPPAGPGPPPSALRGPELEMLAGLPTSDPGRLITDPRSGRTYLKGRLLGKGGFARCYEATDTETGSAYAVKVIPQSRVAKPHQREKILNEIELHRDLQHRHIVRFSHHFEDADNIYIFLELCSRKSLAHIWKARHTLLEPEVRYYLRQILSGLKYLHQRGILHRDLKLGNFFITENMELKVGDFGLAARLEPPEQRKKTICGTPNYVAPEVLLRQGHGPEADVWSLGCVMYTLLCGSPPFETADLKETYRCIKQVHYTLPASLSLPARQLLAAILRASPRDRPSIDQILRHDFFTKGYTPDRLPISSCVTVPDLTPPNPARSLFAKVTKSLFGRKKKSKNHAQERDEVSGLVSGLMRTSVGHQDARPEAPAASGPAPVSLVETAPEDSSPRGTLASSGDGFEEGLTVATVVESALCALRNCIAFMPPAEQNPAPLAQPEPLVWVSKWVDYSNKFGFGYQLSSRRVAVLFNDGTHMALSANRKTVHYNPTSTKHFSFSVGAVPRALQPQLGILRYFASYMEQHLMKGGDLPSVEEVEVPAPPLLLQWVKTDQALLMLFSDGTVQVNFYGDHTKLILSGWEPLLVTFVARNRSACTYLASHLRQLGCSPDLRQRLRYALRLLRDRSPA
T23 sequence (P49674 whole entry): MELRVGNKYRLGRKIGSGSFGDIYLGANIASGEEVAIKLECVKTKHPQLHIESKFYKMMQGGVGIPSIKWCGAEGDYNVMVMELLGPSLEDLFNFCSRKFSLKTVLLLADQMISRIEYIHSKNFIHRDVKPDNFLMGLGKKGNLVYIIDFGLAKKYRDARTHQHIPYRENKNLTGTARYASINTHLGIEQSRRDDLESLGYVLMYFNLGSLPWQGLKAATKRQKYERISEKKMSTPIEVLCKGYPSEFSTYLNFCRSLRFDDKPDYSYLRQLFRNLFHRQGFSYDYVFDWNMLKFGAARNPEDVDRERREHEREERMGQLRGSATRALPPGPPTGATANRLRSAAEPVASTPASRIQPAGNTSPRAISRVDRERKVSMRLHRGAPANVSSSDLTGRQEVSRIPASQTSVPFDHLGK
T10 sequence (Q9UQB9 whole entry): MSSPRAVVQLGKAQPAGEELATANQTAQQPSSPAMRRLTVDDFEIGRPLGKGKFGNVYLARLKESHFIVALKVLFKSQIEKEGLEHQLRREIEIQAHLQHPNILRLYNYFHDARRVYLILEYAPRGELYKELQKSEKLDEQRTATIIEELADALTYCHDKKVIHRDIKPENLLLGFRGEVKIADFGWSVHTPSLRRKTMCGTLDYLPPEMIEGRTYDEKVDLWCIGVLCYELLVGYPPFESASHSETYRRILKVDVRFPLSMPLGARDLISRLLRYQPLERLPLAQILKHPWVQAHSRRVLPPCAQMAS
T5 sequence (O14757 whole entry): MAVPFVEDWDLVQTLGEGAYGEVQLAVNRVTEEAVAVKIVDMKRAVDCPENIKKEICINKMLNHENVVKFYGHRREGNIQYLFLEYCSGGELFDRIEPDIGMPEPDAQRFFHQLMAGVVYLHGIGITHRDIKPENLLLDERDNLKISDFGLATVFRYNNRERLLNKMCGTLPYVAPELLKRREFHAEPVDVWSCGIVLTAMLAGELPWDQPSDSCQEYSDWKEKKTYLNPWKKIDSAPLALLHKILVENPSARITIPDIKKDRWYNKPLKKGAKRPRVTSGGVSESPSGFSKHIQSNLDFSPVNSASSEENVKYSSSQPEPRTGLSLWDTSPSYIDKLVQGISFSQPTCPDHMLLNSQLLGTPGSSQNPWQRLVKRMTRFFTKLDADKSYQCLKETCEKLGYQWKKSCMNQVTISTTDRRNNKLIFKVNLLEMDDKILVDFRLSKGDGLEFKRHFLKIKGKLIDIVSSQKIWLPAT
T12 sequence (P35968 20-1356): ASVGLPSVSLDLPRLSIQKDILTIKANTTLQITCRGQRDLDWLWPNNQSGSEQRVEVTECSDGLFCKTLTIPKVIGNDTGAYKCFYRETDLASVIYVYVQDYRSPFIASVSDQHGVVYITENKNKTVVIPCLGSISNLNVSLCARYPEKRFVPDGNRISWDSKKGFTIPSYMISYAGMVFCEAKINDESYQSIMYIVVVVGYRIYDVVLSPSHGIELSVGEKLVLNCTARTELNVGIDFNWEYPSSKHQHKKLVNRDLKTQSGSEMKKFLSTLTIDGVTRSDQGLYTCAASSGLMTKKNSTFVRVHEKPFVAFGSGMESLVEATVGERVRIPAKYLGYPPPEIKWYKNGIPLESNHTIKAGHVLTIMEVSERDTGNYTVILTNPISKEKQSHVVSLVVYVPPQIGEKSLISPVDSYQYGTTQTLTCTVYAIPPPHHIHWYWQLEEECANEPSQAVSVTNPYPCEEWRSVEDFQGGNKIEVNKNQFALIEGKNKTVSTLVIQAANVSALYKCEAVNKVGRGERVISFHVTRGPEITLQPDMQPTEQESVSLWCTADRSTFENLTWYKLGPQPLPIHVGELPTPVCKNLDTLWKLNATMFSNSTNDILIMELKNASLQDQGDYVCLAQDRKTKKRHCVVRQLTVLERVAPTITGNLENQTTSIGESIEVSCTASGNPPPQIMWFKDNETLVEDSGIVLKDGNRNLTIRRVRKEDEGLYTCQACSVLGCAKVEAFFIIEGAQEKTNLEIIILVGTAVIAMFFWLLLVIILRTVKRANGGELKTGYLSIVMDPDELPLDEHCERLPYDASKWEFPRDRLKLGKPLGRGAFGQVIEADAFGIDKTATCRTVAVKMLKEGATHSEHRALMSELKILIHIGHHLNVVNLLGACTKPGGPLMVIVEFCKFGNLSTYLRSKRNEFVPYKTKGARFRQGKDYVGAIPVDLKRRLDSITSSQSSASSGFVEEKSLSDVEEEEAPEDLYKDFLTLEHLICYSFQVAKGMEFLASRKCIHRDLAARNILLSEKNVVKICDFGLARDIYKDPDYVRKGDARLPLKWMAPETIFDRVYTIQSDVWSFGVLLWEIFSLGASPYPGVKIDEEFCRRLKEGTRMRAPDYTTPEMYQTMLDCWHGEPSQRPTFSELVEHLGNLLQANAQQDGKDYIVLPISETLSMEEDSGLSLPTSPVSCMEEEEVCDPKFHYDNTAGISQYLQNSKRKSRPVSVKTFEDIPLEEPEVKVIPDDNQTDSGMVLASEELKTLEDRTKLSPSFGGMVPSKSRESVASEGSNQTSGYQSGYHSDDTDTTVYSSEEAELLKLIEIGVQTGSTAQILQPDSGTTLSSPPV
T28 sequence (Q9Y6M4 whole entry): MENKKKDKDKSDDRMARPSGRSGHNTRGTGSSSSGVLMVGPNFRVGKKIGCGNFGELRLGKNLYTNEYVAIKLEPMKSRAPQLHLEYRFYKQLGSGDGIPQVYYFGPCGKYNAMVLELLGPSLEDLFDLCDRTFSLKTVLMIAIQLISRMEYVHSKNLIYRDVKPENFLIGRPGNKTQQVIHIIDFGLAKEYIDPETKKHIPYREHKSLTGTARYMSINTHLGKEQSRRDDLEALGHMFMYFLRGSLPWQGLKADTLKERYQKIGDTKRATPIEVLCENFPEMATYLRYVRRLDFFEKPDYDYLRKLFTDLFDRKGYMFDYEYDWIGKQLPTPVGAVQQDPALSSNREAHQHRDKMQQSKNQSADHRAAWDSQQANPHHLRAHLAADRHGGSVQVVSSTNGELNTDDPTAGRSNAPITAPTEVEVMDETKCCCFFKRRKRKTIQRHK

O=C(O)c1cc(C(F)(F)F)ccc1NCCc1c[nH]c2cc(Br)ccc12 [Compound 5, 2-((2-(6-Bromo-1H-indol-3-yl)ethyl)amino)−5-(trifluoromethyl)benzoic Acid]
activity at 10 µM [1]: 95.6 ± 0.3% | activity at 10 µM [2]: 75.5 ± 0.1% | activity at 10 µM [3]: 91 ± 0.5% | activity at 10 µM [4]: 101.7 ± 0.2% | activity at 10 µM [5]: 95.2 ± 1.2% | activity at 10 µM [6]: 104 ± 1.9% | activity at 10 µM [7]: 80.5 ± 0.4% | activity at 10 µM [8]: 107.9 ± 0.2% | activity at 10 µM [9]: 108.2 ± 0.2% | activity at 10 µM [10]: 98 ± 0.2% | activity at 10 µM [11]: 107 ± 1.5% | activity at 10 µM [12]: 87.7 ± 1.6% | activity at 10 µM [13]: 93.4 ± 0.3% | activity at 10 µM [14]: 96.5 ± 1.8% | activity at 10 µM [15]: 110 ± 1.7% | activity at 10 µM [16]: 45.4 ± 0.9% | activity at 10 µM [17]: 85.4 ± 0.7% | activity at 10 µM [18]: 65.6 ± 1.3% | activity at 10 µM [19]: 88.1 ± 0.3% | activity at 10 µM [20]: 79.3 ± 3.7% | activity at 10 µM [21]: 89.6 ± 2.7% | activity at 10 µM [22]: 117 ± 1.2% | activity at 10 µM [23]: 60.1 ± 1.8% | activity at 10 µM [24]: 50.8 ± 1.3% | activity at 10 µM [25]: 127 ± 0.1% | activity at 10 µM [26]: 81.6 ± 0.5% | activity at 10 µM [27]: 59.1 ± 0.1% | activity at 10 µM [28]: 96.3 ± 0.6% | activity at 10 µM [29]: 95.1% | activity at 10 µM [30]: 77.2 ± 0.7% | activity at 10 µM [31]: 101 ± 1.8% | activity at 10 µM [32]: 94.7 ± 0.1% | activity at 10 µM [33]: 102.2 ± 0.1% | activity at 10 µM [34]: 94.9 ± 0.2% | activity at 10 µM [35]: 96.7 ± 0.2% | activity at 10 µM [36]: 68.9 ± 0.2% | activity at 10 µM [37]: 109 ± 2.6%
